Reference: US6689773B2, “Uracil substituted phenyl sulfamoyl carboxamides” (BASF Aktiengesellschaft, priority 2000, dated 2004)

Legend:
Format in all cases: in vivo
[1] = system: AMBEL, Ragweed, Common, Ambrosia artemiisifolia, L.; assay: Postemergence herbicidal evaluation (Example 147); settings: rating scale 0-9, two to three weeks after treatment
Method: (§1) Seedling plants were grown in jiffy flats for about two weeks. The test compounds were dispersed in 80/20 acetone/water mixtures containing 1.0% SUN-IT®II, a methylated seed oil, in sufficient quantities to provide the equivalent of about 0.016 to 0.032 kg per hectare of active compound when applied to the plants through a spray nozzle operating at 40 psi for a predetermined time. After spraying, the plants were placed on greenhouse benches and were cared for in accordance with conventional greenhouse procedures. Approximately two to three weeks after treatment, the seedling plants were examined and rated according to the rating scale (0-9) set forth below. Where more than one test is involved for a given compound, the data are averaged. [table] The scale is based upon a visual observation of plant stand, vigor, malformation, size, chlorosis and overall plant appearance as compared with a control. Plant species employed in these evaluations are reported by header abbreviation, common name and scientific name. [table]

[2] = system: TRZAW, Winter wheat, Tritium Aestivum, L. (Winter); assay: Postemergence herbicidal evaluation (Example 147); settings: rating scale 0-9, two to three weeks after treatment
Method: as §1

[3] = system: GLXMA, Soybean, Glycine max, (L.) Merr.; assay: Postemergence herbicidal evaluation (Example 147); settings: rating scale 0-9, two to three weeks after treatment
Method: as §1

[4] = system: ABUTH, Velvetleaf, Abutilon theophrasti, Medic.; assay: Postemergence herbicidal evaluation (Example 147); settings: rating scale 0-9, two to three weeks after treatment
Method: as §1

[5] = system: ALOMY, Blackgrass, Alopecurus myosuroides; assay: Postemergence herbicidal evaluation (Example 147); settings: rating scale 0-9, two to three weeks after treatment
Method: as §1

[6] = system: SETVI, Green foxtail, Setaria viridis, (L.)Beau; assay: Postemergence herbicidal evaluation (Example 147); settings: rating scale 0-9, two to three weeks after treatment
Method: as §1

[7] = system: IPOHE, Morningglory, Ivyleaf, Ipomoea hederacea, (L)Jacq.; assay: Postemergence herbicidal evaluation (Example 147); settings: rating scale 0-9, two to three weeks after treatment
Method: as §1

[8] = system: XANST, Cocklebur, Xanthium strumariam; assay: Postemergence herbicidal evaluation (Example 147); settings: rating scale 0-9, two to three weeks after treatment
Method: as §1

[9] = system: ECHCG, Barnyardgrass, Echinochloa crusgalli, (L.)Beau; assay: Postemergence herbicidal evaluation (Example 147); settings: rating scale 0-9, two to three weeks after treatment
Method: as §1

[10] = system: DIGSA, Crabgrass, (Hairy) L, Digitaria sanguinalis, (L)Scop; assay: Postemergence herbicidal evaluation (Example 147); settings: rating scale 0-9, two to three weeks after treatment
Method: as §1

[11] = system: ZEAMX, Field corn, Zea mays L.; assay: Postemergence herbicidal evaluation (Example 147); settings: rating scale 0-9, two to three weeks after treatment
Method: as §1

[12] = system: CHEAL, Lambsquarters, Chenopodium album, L. Common; assay: Postemergence herbicidal evaluation (Example 147); settings: rating scale 0-9, two to three weeks after treatment
Method: as §1

[13] = system: AMBEL, Ragweed, Common, Ambrosia artemiisifolia, L.; assay: Preemergence herbicidal evaluation (Example 148); settings: rating scale 0-9, two to four weeks after treatment
Method: (§2) The scale is based upon a visual observation of plant stand, vigor, malformation, size, chlorosis and overall plant appearance as compared with a control.
(§3) The herbicidal activity of the compounds of the present invention was evaluated by the following tests wherein the seeds of a variety of monocotyledonous and dicotyledonous plants were separately mixed with potting soil and planted on top of approximately one inch of soil in separate pint cups. After planting, the cups were sprayed with the selected aqueous acetone solution containing test compound in sufficient quantity to provide the equivalent of about 0.125 to 0.250 kg per hectare of test compound per cup. The treated cups were then placed on greenhouse benches, watered and cared for in accordance with conventional greenhouse procedures. From two to four weeks after treatment, the tests were terminated and each cup was examined and rated according to the rating system provided in Example 94. When more than one test was performed for a given compound, the data were averaged.

[14] = system: TRZAW, Winter wheat, Tritium Aestivum, L. (Winter); assay: Preemergence herbicidal evaluation (Example 148); settings: rating scale 0-9, two to four weeks after treatment
Method: as §2, §3

[15] = system: ABUTH, Velvetleaf, Abutilon theophrasti, Medic.; assay: Preemergence herbicidal evaluation (Example 148); settings: rating scale 0-9, two to four weeks after treatment
Method: as §2, §3

[16] = system: ALOMY, Blackgrass, Alopecurus myosuroides; assay: Preemergence herbicidal evaluation (Example 148); settings: rating scale 0-9, two to four weeks after treatment
Method: as §2, §3

[17] = system: SETVI, Green foxtail, Setaria viridis, (L.)Beau; assay: Preemergence herbicidal evaluation (Example 148); settings: rating scale 0-9, two to four weeks after treatment
Method: as §2, §3

[18] = system: IPOHE, Morningglory, Ivyleaf, Ipomoea hederacea, (L)Jacq.; assay: Preemergence herbicidal evaluation (Example 148); settings: rating scale 0-9, two to four weeks after treatment
Method: as §2, §3

[19] = system: ECHCG, Barnyardgrass, Echinochloa crusgalli, (L.)Beau; assay: Preemergence herbicidal evaluation (Example 148); settings: rating scale 0-9, two to four weeks after treatment
Method: as §2, §3

[20] = system: DIGSA, Crabgrass, (Hairy) L, Digitaria sanguinalis, (L)Scop; assay: Preemergence herbicidal evaluation (Example 148); settings: rating scale 0-9, two to four weeks after treatment
Method: as §2, §3

[21] = system: ZEAMX, Field corn, Zea mays L.; assay: Preemergence herbicidal evaluation (Example 148); settings: rating scale 0-9, two to four weeks after treatment
Method: as §2, §3

[22] = system: CHEAL, Lambsquarters, Chenopodium album, L. Common; assay: Preemergence herbicidal evaluation (Example 148); settings: rating scale 0-9, two to four weeks after treatment
Method: as §2, §3

Cn1c(C(F)(F)F)cc(=O)n(-c2cc(C(=O)NS(=O)(=O)NC(C)(C)C)c(Cl)cc2F)c1=O [Example 65]
Postemergence herbicidal rating AMBEL ([1]; rate 0.016 kg/ha): 9.0 | Postemergence herbicidal rating AMBEL ([1]; rate 0.032 kg/ha): 9.0 | Postemergence herbicidal rating TRZAW ([2]; rate 0.016 kg/ha): 5.5 | Postemergence herbicidal rating TRZAW ([2]; rate 0.032 kg/ha): 6.5 | Postemergence herbicidal rating GLXMA ([3]; rate 0.016 kg/ha): 8.0 | Postemergence herbicidal rating GLXMA ([3]; rate 0.032 kg/ha): 8.5 | Postemergence herbicidal rating ABUTH ([4]; rate 0.016 kg/ha): 9.0 | Postemergence herbicidal rating ABUTH ([4]; rate 0.032 kg/ha): 9.0 | Postemergence herbicidal rating ALMOY ([5]; rate 0.016 kg/ha): 2.0 | Postemergence herbicidal rating ALMOY ([5]; rate 0.032 kg/ha): 3.0 | Postemergence herbicidal rating SETVI ([6]; rate 0.016 kg/ha): 8.0 | Postemergence herbicidal rating SETVI ([6]; rate 0.032 kg/ha): 8.0 | Postemergence herbicidal rating IPOHE ([7]; rate 0.016 kg/ha): 9.0 | Postemergence herbicidal rating IPOHE ([7]; rate 0.032 kg/ha): 9.0 | Postemergence herbicidal rating XANST ([8]; rate 0.016 kg/ha): 9.0 | Postemergence herbicidal rating XANST ([8]; rate 0.032 kg/ha): 9.0 | Postemergence herbicidal rating ECHCG ([9]; rate 0.016 kg/ha): 8.0 | Postemergence herbicidal rating ECHCG ([9]; rate 0.032 kg/ha): 9.0 | Postemergence herbicidal rating DIGSA ([10]; rate 0.016 kg/ha): 6.0 | Postemergence herbicidal rating DIGSA ([10]; rate 0.032 kg/ha): 8.0 | Postemergence herbicidal rating ZEAMX ([11]; rate 0.016 kg/ha): 7.5 | Postemergence herbicidal rating ZEAMX ([11]; rate 0.032 kg/ha): 8.0 | Postemergence herbicidal rating CHEAL ([12]; rate 0.016 kg/ha): 8.0 | Postemergence herbicidal rating CHEAL ([12]; rate 0.032 kg/ha): 9.0 | Preemergence herbicidal rating AMBEL ([13]; rate 0.125 kg/ha): 9.0 | Preemergence herbicidal rating AMBEL ([13]; rate 0.25 kg/ha): 9.0 | Preemergence herbicidal rating TRZAW ([14]; rate 0.125 kg/ha): 1.0 | Preemergence herbicidal rating TRZAW ([14]; rate 0.25 kg/ha): 1.0 | Preemergence herbicidal rating ABUTH ([15]; rate 0.125 kg/ha): 9.0 | Preemergence herbicidal rating ABUTH ([15]; rate 0.25 kg/ha): 9.0 | Preemergence herbicidal rating ALMOY ([16]; rate 0.125 kg/ha): 0.0 | Preemergence herbicidal rating ALMOY ([16]; rate 0.25 kg/ha): 0.0 | Preemergence herbicidal rating SETVI ([17]; rate 0.125 kg/ha): 3.0 | Preemergence herbicidal rating SETVI ([17]; rate 0.25 kg/ha): 6.0 | Preemergence herbicidal rating IPOHE ([18]; rate 0.125 kg/ha): 9.0 | Preemergence herbicidal rating IPOHE ([18]; rate 0.25 kg/ha): 9.0 | Preemergence herbicidal rating ECHCG ([19]; rate 0.125 kg/ha): 8.0 | Preemergence herbicidal rating ECHCG ([19]; rate 0.25 kg/ha): 9.0 | Preemergence herbicidal rating DIGSA ([20]; rate 0.125 kg/ha): 7.0 | Preemergence herbicidal rating DIGSA ([20]; rate 0.25 kg/ha): 9.0 | Preemergence herbicidal rating ZEAMX ([21]; rate 0.125 kg/ha): 0.0 | Preemergence herbicidal rating ZEAMX ([21]; rate 0.25 kg/ha): 1.0 | Preemergence herbicidal rating CHEAL ([22]; rate 0.125 kg/ha): 9.0 | Preemergence herbicidal rating CHEAL ([22]; rate 0.25 kg/ha): 9.0

CCCN(C)S(=O)(=O)NC(=O)c1cc(-n2c(=O)cc(C(F)(F)F)n(C)c2=O)c(F)cc1Cl [Example 67]
Postemergence herbicidal rating AMBEL ([1]; rate 0.016 kg/ha): 9.0 | Postemergence herbicidal rating AMBEL ([1]; rate 0.032 kg/ha): 9.0 | Postemergence herbicidal rating TRZAW ([2]; rate 0.016 kg/ha): 6.5 | Postemergence herbicidal rating TRZAW ([2]; rate 0.032 kg/ha): 7.0 | Postemergence herbicidal rating GLXMA ([3]; rate 0.016 kg/ha): 8.0 | Postemergence herbicidal rating GLXMA ([3]; rate 0.032 kg/ha): 8.5 | Postemergence herbicidal rating ABUTH ([4]; rate 0.016 kg/ha): 9.0 | Postemergence herbicidal rating ABUTH ([4]; rate 0.032 kg/ha): 9.0 | Postemergence herbicidal rating ALMOY ([5]; rate 0.016 kg/ha): 2.0 | Postemergence herbicidal rating ALMOY ([5]; rate 0.032 kg/ha): 3.0 | Postemergence herbicidal rating SETVI ([6]; rate 0.016 kg/ha): 8.0 | Postemergence herbicidal rating SETVI ([6]; rate 0.032 kg/ha): 8.0 | Postemergence herbicidal rating IPOHE ([7]; rate 0.016 kg/ha): 9.0 | Postemergence herbicidal rating IPOHE ([7]; rate 0.032 kg/ha): 9.0 | Postemergence herbicidal rating XANST ([8]; rate 0.016 kg/ha): 9.0 | Postemergence herbicidal rating XANST ([8]; rate 0.032 kg/ha): 9.0 | Postemergence herbicidal rating ECHCG ([9]; rate 0.016 kg/ha): 8.0 | Postemergence herbicidal rating ECHCG ([9]; rate 0.032 kg/ha): 8.0 | Postemergence herbicidal rating DIGSA ([10]; rate 0.016 kg/ha): 6.0 | Postemergence herbicidal rating DIGSA ([10]; rate 0.032 kg/ha): 6.0 | Postemergence herbicidal rating ZEAMX ([11]; rate 0.016 kg/ha): 7.5 | Postemergence herbicidal rating ZEAMX ([11]; rate 0.032 kg/ha): 7.5 | Postemergence herbicidal rating CHEAL ([12]; rate 0.016 kg/ha): 9.0 | Postemergence herbicidal rating CHEAL ([12]; rate 0.032 kg/ha): 9.0 | Preemergence herbicidal rating AMBEL ([13]; rate 0.125 kg/ha): 9.0 | Preemergence herbicidal rating AMBEL ([13]; rate 0.25 kg/ha): 7.0 | Preemergence herbicidal rating TRZAW ([14]; rate 0.125 kg/ha): 0.0 | Preemergence herbicidal rating TRZAW ([14]; rate 0.25 kg/ha): 1.0 | Preemergence herbicidal rating ABUTH ([15]; rate 0.125 kg/ha): 9.0 | Preemergence herbicidal rating ABUTH ([15]; rate 0.25 kg/ha): 9.0 | Preemergence herbicidal rating ALMOY ([16]; rate 0.125 kg/ha): 0.0 | Preemergence herbicidal rating ALMOY ([16]; rate 0.25 kg/ha): 0.0 | Preemergence herbicidal rating SETVI ([17]; rate 0.125 kg/ha): 8.0 | Preemergence herbicidal rating SETVI ([17]; rate 0.25 kg/ha): 8.0 | Preemergence herbicidal rating IPOHE ([18]; rate 0.125 kg/ha): 9.0 | Preemergence herbicidal rating IPOHE ([18]; rate 0.25 kg/ha): 9.0 | Preemergence herbicidal rating ECHCG ([19]; rate 0.125 kg/ha): 8.0 | Preemergence herbicidal rating ECHCG ([19]; rate 0.25 kg/ha): 9.0 | Preemergence herbicidal rating DIGSA ([20]; rate 0.125 kg/ha): 7.0 | Preemergence herbicidal rating DIGSA ([20]; rate 0.25 kg/ha): 8.0 | Preemergence herbicidal rating ZEAMX ([21]; rate 0.125 kg/ha): 0.0 | Preemergence herbicidal rating ZEAMX ([21]; rate 0.25 kg/ha): 1.0 | Preemergence herbicidal rating CHEAL ([22]; rate 0.125 kg/ha): 9.0 | Preemergence herbicidal rating CHEAL ([22]; rate 0.25 kg/ha): 9.0
